Results from the NIST ThermoML archive (doi:10.1016/j.jct.2019.03.025).

Assay: xn = mol fraction of the nth substance listed
Details: Liquid, Vibrating tube method

Cc1cccc(C)c1 [1,3-dimethylbenzene] + CCCCCCCCCC
mass density [kg/m3]
Details | x2 = 0 | x2 = 0.2005 | x2 = 0.3999 | x2 = 0.603 | x2 = 0.7998
333.15 K, 100 kPa | 829 | 791.1 | 760.5 | 735.9 | 716.6
333.15 K, 1000 kPa | 829.8 | 791.9 | 761.3 | 736.7 | 717.4
333.15 K, 3000 kPa | 831.7 | 793.8 | 763.3 | 738.7 | 719.4
333.15 K, 5000 kPa | 833.4 | 795.6 | 765.1 | 740.5 | 721.2
333.15 K, 10000 kPa | 837.6 | 799.9 | 769.5 | 744.9 | 725.7
333.15 K, 15000 kPa | 841.6 | 804.1 | 773.7 | 749.2 | 729.9
333.15 K, 20000 kPa | 845.6 | 808.1 | 777.7 | 753.2 | 733.9
333.15 K, 25000 kPa | 849.3 | 811.9 | 781.4 | 756.9 | 737.7
333.15 K, 30000 kPa | 852.8 | 815.4 | 785 | 760.5 | 741.3
333.15 K, 35000 kPa | 856.2 | 818.9 | 788.4 | 763.9 | 744.7
333.15 K, 40000 kPa | 859.7 | 822.4 | 792 | 767.4 | 748.2
333.15 K, 50000 kPa | 866 | 828.7 | 798.2 | 773.7 | 754.4
333.15 K, 60000 kPa | 871.9 | 834.6 | 804.2 | 779.6 | 760.4
343.15 K, 100 kPa | 820 | 782.3 | 752 | 727.6 | 708.4
343.15 K, 1000 kPa | 821.1 | 783.5 | 753.1 | 728.7 | 709.4
343.15 K, 3000 kPa | 823 | 785.4 | 755.1 | 730.7 | 711.5
343.15 K, 5000 kPa | 825 | 787.5 | 757.2 | 732.8 | 713.6
343.15 K, 10000 kPa | 829.4 | 792 | 761.8 | 737.5 | 718.3
343.15 K, 15000 kPa | 833.6 | 796.4 | 766.1 | 741.8 | 722.6
343.15 K, 20000 kPa | 837.9 | 800.7 | 770.5 | 746.2 | 727
343.15 K, 25000 kPa | 841.7 | 804.6 | 774.3 | 750 | 730.9
343.15 K, 30000 kPa | 845.5 | 808.4 | 778.2 | 753.9 | 734.7
343.15 K, 35000 kPa | 849.2 | 812.1 | 781.9 | 757.6 | 738.4
343.15 K, 40000 kPa | 852.5 | 815.5 | 785.3 | 761 | 741.8
343.15 K, 50000 kPa | 859.1 | 822.1 | 791.9 | 767.6 | 748.5
343.15 K, 60000 kPa | 865 | 828.1 | 797.8 | 773.4 | 754.2
353.15 K, 100 kPa | 811.3 | 773.9 | 743.8 | 719.6 | 700.5
353.15 K, 1000 kPa | 812.2 | 774.8 | 744.7 | 720.5 | 701.4
353.15 K, 3000 kPa | 814.3 | 777.1 | 747 | 722.8 | 703.7
353.15 K, 5000 kPa | 816.2 | 779.1 | 749 | 724.8 | 705.8
353.15 K, 10000 kPa | 821 | 784 | 753.9 | 729.8 | 710.8
353.15 K, 15000 kPa | 825.7 | 788.7 | 758.7 | 734.6 | 715.6
353.15 K, 20000 kPa | 829.8 | 793 | 763 | 739 | 720
353.15 K, 25000 kPa | 834 | 797.2 | 767.2 | 743.1 | 724.1
353.15 K, 30000 kPa | 838 | 801.2 | 771.2 | 747.1 | 728.1
353.15 K, 35000 kPa | 841.7 | 805 | 775 | 750.9 | 731.9
353.15 K, 40000 kPa | 845.3 | 808.6 | 778.6 | 754.5 | 735.4
353.15 K, 50000 kPa | 852.1 | 815.4 | 785.4 | 761.3 | 742.2
353.15 K, 60000 kPa | 858.5 | 821.8 | 791.8 | 767.6 | 748.5
363.15 K, 100 kPa | 802.2 | 765.1 | 735.2 | 711.3 | 692.3
363.15 K, 1000 kPa | 803.3 | 766.2 | 736.4 | 712.5 | 693.5
363.15 K, 3000 kPa | 805.5 | 768.6 | 738.8 | 714.9 | 695.9
363.15 K, 5000 kPa | 807.6 | 770.8 | 741 | 717.1 | 698.2
363.15 K, 10000 kPa | 812.4 | 775.7 | 745.9 | 722 | 703
363.15 K, 15000 kPa | 817.6 | 781 | 751.2 | 727.4 | 708.5
363.15 K, 20000 kPa | 821.8 | 785.3 | 755.6 | 731.7 | 712.8
363.15 K, 25000 kPa | 826 | 789.5 | 759.8 | 735.9 | 717
363.15 K, 30000 kPa | 830.2 | 793.8 | 764.1 | 740.2 | 721.4
363.15 K, 35000 kPa | 834.2 | 797.8 | 768.1 | 744.3 | 725.4
363.15 K, 40000 kPa | 838.1 | 801.7 | 772 | 748.2 | 729.3
363.15 K, 50000 kPa | 845.2 | 808.8 | 779.1 | 755.2 | 736.3
363.15 K, 60000 kPa | 852 | 815.6 | 785.8 | 761.8 | 742.9
